In ChEMBL document CHEMBL4376854, “Investigation of the Adrenergic and Opioid Binding Affinities, Metabolic Stability, Plasma Protein Binding Properties, and Functional Effects of Selected Indole-Based Kratom Alkaloids” (J Med Chem, 2020):
Calls of active or inactive are those of the source. The rule behind the calls is not given here.

Key:
[1] = biological target: T1, Alpha-1B adrenergic receptor (Homo sapiens, UniProt P35368); test: Displacement of [3H]prazosin from human recombinant adrenergic alpha-1B receptor expressed in CHO cell membranes incubated for 60 mins
T1 sequence (P35368 whole entry): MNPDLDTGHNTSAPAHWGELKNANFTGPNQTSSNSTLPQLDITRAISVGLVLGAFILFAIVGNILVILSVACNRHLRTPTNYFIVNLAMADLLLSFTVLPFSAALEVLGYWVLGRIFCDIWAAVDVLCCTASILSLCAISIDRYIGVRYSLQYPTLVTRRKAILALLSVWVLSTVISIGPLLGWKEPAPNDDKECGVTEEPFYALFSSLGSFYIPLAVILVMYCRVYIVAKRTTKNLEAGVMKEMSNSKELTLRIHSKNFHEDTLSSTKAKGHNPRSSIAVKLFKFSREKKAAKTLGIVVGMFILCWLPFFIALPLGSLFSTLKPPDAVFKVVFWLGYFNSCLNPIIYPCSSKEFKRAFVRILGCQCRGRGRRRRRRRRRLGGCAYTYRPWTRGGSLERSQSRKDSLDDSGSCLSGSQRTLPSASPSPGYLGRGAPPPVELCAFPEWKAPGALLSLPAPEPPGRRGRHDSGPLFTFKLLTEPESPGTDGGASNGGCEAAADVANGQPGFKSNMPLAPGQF

[2] = biological target: Nociceptin receptor (Homo sapiens) (UniProt P41146); conditions: 100 nM
Sequence of Nociceptin receptor (Homo sapiens) (P41146 whole entry): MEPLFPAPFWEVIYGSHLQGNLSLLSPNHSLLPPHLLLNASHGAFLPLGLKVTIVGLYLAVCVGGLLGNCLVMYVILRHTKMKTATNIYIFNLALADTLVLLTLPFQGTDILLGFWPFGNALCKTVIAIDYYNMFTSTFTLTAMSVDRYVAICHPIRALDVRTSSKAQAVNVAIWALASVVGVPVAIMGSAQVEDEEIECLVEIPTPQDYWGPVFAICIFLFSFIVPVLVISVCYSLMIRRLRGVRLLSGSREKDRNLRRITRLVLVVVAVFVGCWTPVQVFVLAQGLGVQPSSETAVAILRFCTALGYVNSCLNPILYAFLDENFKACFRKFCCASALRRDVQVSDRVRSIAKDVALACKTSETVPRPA

[3] = biological target: T2, Alpha-2C adrenergic receptor (Homo sapiens) (UniProt P18825); test: Competitive antagonist activity at human recombinant adrenergic alpha-2C receptor expressed in CHO cells assessed as inhibition of epinephrine-induced intracellular calcium levels incubated at room temperature by fluorimetry; format: functional, cell-based
T2 sequence (whole entry): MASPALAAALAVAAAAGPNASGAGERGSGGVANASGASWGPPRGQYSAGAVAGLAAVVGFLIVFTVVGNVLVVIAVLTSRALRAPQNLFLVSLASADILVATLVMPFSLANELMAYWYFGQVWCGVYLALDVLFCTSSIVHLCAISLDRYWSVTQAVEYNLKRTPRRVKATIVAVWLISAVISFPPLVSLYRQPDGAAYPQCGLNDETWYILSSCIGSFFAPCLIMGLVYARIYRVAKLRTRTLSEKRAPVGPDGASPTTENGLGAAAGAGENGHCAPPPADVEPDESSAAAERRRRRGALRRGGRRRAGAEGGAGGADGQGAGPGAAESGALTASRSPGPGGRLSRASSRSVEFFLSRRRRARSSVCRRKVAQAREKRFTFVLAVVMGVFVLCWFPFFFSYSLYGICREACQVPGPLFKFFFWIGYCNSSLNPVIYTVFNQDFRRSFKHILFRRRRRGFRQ

[4] = biological target: T3, Alpha-1A adrenergic receptor (Homo sapiens, UniProt P35348); test: Displacement of [3H]prazosin from human recombinant adrenergic alpha-1A receptor expressed in CHO cell membranes incubated for 60 mins
T3 sequence (P35348 whole entry): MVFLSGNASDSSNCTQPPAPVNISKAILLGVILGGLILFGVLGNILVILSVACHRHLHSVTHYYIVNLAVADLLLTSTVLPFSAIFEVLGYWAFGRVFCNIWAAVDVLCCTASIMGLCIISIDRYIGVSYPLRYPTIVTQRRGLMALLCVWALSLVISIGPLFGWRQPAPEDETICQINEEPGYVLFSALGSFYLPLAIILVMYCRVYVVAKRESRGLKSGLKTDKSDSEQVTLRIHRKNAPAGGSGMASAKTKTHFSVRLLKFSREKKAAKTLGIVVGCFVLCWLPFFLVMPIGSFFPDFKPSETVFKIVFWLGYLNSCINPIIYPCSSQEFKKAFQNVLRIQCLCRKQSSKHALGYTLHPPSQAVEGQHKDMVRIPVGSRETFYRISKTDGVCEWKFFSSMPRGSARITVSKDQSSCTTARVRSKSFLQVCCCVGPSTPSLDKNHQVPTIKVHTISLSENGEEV

Mu-type opioid receptor = Mu-type opioid receptor (Homo sapiens, UniProt P35372); conditions: HEK293, 100 nM
Sequence of Mu-type opioid receptor (P35372 whole entry): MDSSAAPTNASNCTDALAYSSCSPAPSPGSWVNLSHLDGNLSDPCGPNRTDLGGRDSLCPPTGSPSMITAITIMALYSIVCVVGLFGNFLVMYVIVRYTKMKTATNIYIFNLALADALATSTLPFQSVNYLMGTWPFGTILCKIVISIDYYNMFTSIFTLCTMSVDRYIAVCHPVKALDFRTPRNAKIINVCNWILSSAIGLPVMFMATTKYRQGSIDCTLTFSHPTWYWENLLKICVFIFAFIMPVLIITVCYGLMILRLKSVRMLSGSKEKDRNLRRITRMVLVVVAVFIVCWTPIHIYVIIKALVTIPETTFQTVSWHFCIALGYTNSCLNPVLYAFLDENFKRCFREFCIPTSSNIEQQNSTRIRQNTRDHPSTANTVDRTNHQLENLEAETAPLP

[5] = biological target: T4, Alpha-2B adrenergic receptor (Homo sapiens, UniProt P18089); test: biochemical; format: cell-based, CHO
T4 sequence (P18089 whole entry): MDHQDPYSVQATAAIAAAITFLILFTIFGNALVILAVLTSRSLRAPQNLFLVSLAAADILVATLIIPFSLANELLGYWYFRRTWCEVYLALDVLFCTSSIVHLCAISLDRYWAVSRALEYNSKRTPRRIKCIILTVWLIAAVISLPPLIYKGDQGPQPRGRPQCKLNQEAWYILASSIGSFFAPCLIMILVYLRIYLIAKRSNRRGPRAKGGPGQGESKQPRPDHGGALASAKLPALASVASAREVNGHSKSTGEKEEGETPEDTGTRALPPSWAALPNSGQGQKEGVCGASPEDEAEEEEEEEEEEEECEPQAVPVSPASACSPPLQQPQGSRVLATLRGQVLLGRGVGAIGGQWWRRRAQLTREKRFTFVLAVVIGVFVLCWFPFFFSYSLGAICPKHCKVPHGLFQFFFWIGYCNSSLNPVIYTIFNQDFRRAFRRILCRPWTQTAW

Rattus norvegicus = test: Antinociceptive activity in Sprague-Dawley rat dosed intravenously using cumulative dosing every 5 mins until rat maxed-out on hot plate by hot plate test; format: functional; conditions: iv
[6] = biological target: Kappa-type opioid receptor (Homo sapiens, UniProt P41145); test: Agonist activity at human recombinant kappa opioid receptor expressed in rat RBL cells assessed as stimulation of intracellular calcium levels incubated at room temperature by fluorimetry; format: functional, cell-based
Sequence of Kappa-type opioid receptor (P41145 whole entry): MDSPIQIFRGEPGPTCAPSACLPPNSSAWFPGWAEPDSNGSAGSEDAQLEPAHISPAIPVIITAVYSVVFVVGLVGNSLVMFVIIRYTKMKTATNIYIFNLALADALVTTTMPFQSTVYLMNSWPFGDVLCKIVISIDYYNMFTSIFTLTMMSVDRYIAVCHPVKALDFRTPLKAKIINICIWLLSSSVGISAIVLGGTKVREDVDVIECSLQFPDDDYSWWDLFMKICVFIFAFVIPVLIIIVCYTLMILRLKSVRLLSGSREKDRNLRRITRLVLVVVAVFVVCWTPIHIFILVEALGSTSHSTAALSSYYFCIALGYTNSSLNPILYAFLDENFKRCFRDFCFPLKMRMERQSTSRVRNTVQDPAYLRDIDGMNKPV

[7] = biological target: T5, Alpha-2B adrenergic receptor (Homo sapiens) (UniProt P18089); conditions: CHO, 100 nM
T5 sequence (whole entry): T4 sequence (P18089 whole entry)

[8] = biological target: T6, Alpha-1B adrenergic receptor (Homo sapiens) (UniProt P35368); conditions: CHO, 100 nM
T6 sequence (whole entry): T1 sequence (P35368 whole entry)

| SMILES | Ki [1] [µM] | inhibition [2] [%] | inhibition [3] | Ki [4] [µM] | inhibition (Mu-type opioid receptor) [%] | Ki [5] [µM] | ED50 (Rattus norvegicus) [mg/kg] | Activity [6] | inhibition [7] [%] | inhibition [8] [%] |
| --- | --- | --- | --- | --- | --- | --- | --- | --- | --- | --- |
| CC[C@@H]1CN2CCc3c([nH]c4cccc(OC)c34)[C@@H]2C[C@@H]1/C(=C\OC)C(=O)OC | 4.77 | 4.3 | Active | 1.34 | 29 | 9.29 | – | – | – | – |
| CC[C@@H]1CN2CCc3c([nH]c4cccc(OC)c34)[C@H]2C[C@@H]1/C(=C\OC)C(=O)OC | – | – | – | – | – | – | 6.25 | inactive | 0 | 25.2 |
